Measured values as given in patent EP0640088B1, “NOVEL TRICYCLIC THIAZOLO AND THIAZINO DERIVATIVES AND ANTI-VIRAL MEDICAMENTS CONTAINING THEM” (BOEHRINGER MANNHEIM GMBH, priority 1992, dated 1993).

What follows are compounds tested against T1, RT aus HIV-1 (Human immunodeficiency virus type 1 group M subtype B, UniProt P04585) (assay: Inhibition of reverse transcriptase (RT), screening test system measuring [3H]-thymidine-5'-triphosphate incorporation). Conditions: not given.
T1 construct: die gereinigte RT aus HIV-1; made in house; host or cells: E. coli
Type: biochemical
Source text: Hemmung der Reversen Transkriptase (RT)
Das Screeningtestsystem beinhaltet die gereinigte RT aus HIV-1, die durch gentechnologische Methoden in E. coli exprimiert wurde, sowie die Komponenten des Initiationskomplexes, wie die in-vitro-Transkripte des HIV-LTR's mit der benachbarten Primer Binding Site als Template und einem zur Primer Binding Site komplementären 18mer Oligonukleotid als Primer. Gemessen wurde der [^3H]-Thymidin-5'-triphosphat-Einbau durch Auszählen im β-Counter.

| SMILES | IC50 [nM] |
| --- | --- |
| O=C1Nc2ccccc2C2(c3ccccc3)SCCN12 (stereo not shown) [Beispiel 1 b, 10b-Phenyl-2,3,6,10-tetrahydro-5H-thiazolo[3,2-c]quinazolin-5-on] | 470 |
| O=C1Nc2ccccc2C2(c3ccccc3)SCCCN12 (stereo not shown) [Beispiel 2, 11b-Phenyl-3,4,7,11b-tetrahydro-2H,6H-[1,3]thiazino[3,2-c]quinazolin-6-on] | 510 |
| Cc1cccc(C23SCCN2C(=O)Nc2ccccc23)c1 (stereo not shown) [Beispiel 5 b, 10b-(3-Methylphenyl)-2,3,6,10b-tetrahydro-5H-thiazolo[3,2-c]quinazolin-5-on] | 30 |
| Cc1cccc(C23SCCN2C(=O)Nc2ccccc23)n1 (stereo not shown) [Beispiel 5 f, 10b-(6-Methyl-2-pyridyl)-2,3,6,10b-tetrahydro-5H-thiazolo[3,2-c]quinazolin-5-on] | 200 |
| CN1C(=O)N2CCSC2(c2ccccc2)c2ccccc21 (stereo not shown) [Beispiel 6, 6-Methyl-10b-phenyl-2,3,6,10b-tetrahydro-5H-thiazolo [3,2-c]quinazolin-5-on] | 6200 |
| S=C1Nc2ccccc2C2(c3ccccc3)SCCN12 (stereo not shown) [Beispiel 7, 10b-Phenyl-2,3,6,10b-tetrahydro-5H-thiazolo[3,2-c]quinazolin-5-thion] | 30 |

Same assay, conditions: purified recombinant RT from HIV-1 expressed in E. coli; HIV-LTR in-vitro transcript as template, 18mer oligonucleotide primer; [3H]-TTP incorporation, β-counter; read-out: Hemmung der HIV-RT IC50

| SMILES | IC50 [nM] |
| --- | --- |
| O=C1Nc2ccc(Cl)cc2C2(c3ccccc3)SCCN12 (stereo not shown) [Beispiel 4, 9-Chlor-10b-phenyl-2,3,6,10b-tetrahydro-5H-thiazolo[3,2-c]quinazolin-5-on] | 30 |
